Results taken from patent US20080132510A1, “Imidazolylmethyl and Pyrazolylmethyl Heteroaryl Derivatives” (priority 2005, published 2008).

Biological target: benzodiazepine site of the GABAA receptor
Assay: Ligand binding assay (3H-Ro15-1788 displacement, purified rat cortical membranes)
Conditions: previously determined; used in the Cheng-Prusoff equation; read-out: binding dissociation constant (Kd) of the radioligand

**Q.** With `CCOC(=O)c1ncn2c1CN(C)C(=O)c1cc(F)ccc1-2` [^3H—R15-1788] as the compound, how does the Kd read?
**A.** 1 nM
